According to patent US20240116985A1, “STAPLED PEPTIDES AND METHODS THEREOF” (priority 2020, published 2024):
pIC50: −log10 of the molar value. Read-outs that look alike come from different tables or passages of the source.

Tests used:
[1] = target: T1, beta-catenin/TCF4 engagement (Homo sapiens, UniProt P35222); assay: Nano-BRET target engagement assay (B-cat-Halo & TCF4-Luc in HEK293 cells); format: cell-based
T1 construct: expressed in transfected cells; host or cells: HEK293
T1 sequence (P35222 1-781): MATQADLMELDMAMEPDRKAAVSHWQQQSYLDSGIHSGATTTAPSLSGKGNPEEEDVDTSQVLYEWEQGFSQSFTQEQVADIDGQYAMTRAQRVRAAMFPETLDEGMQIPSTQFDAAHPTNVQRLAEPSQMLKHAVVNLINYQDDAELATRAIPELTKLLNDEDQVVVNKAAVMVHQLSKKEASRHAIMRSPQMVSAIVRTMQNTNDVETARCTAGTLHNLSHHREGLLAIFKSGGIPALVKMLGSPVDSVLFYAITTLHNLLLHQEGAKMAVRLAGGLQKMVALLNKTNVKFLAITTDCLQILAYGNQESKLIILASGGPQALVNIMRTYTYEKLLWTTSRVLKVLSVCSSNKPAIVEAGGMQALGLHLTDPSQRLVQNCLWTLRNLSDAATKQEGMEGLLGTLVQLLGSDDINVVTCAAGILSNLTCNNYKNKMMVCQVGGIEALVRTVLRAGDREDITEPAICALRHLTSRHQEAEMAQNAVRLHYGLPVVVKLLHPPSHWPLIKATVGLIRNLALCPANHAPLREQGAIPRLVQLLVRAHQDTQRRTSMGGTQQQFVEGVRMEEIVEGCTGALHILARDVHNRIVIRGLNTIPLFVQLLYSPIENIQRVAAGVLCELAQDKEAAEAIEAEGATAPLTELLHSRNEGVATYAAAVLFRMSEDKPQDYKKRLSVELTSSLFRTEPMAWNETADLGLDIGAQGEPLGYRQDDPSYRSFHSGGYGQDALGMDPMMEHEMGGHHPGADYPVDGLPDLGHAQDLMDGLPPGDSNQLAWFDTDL

[2] = target: T2, full-length beta-Catenin (Uniprot ID P35222) (Homo sapiens, UniProt P35222); assay: Fluorescence polarization IC50 (beta-catenin / 5FAM-TCF4 10-53 competition); format: binding
T2 construct: 10 nM full-length beta-Catenin (Uniprot ID P35222)
T2 sequence (P35222 1-781): T1 sequence (P35222 1-781)

[3] = fluorescence polarization, read-out: beta-Catenin FP IC50
[4] = absolute IC50, read-out: NanoBRET Abs IC50

Row | Structure (SMILES) | pIC50 ([1]; read-out: NanoBRET Abs IC50) | pIC50 [2, 3] | pIC50 [1, 4] | further results
1 | CC(=O)N1CCC[C@]12CC=CCCCC1(CCCC=CCCCOC(=O)N3CC[C@@](C(=O)N[C@@H](Cc4ccsc4)C(=O)N[C@@H](Cc4csc5ccccc45)C(=O)N[C@@H](CCC(N)=O)C(N)=O)(C3)NC(=O)[C@H](CC(C)C)NC(=O)[C@H](Cc3ccccc3)NC(=O)[C@H](C)NC(=O)[C@H](C)NC(=O)[C@H](CNc3ccc(N)cc3C(=O)O)NC(=O)[C@H](CC(=O)O)NC1=O)NC(=O)[C@H](CC(C)(C)C)NC(=O)[C@H](CC(=O)O)NC2=O (stereo partly drawn) [I-2087, Ac-PL3-Asp-Npg-B5-Asp-[2COOH4NH2Ph]Dap-Ala-Ala-Phe-Leu-PyrS2-3Thi-BztA-Gln-NH2] | 5.19 | 7.59 |  | 
2 | CC(=O)N1CCC[C@]12CC=CCCCC1(CCCC=CCCCOC(=O)N3CC[C@@](C(=O)N[C@@H](Cc4ccsc4)C(=O)N[C@@H](Cc4csc5ccccc45)C(=O)N[C@@H](CC(C)C)C(N)=O)(C3)NC(=O)[C@H](CC(C)C)NC(=O)[C@H](Cc3ccccc3)NC(=O)[C@H](C)NC(=O)[C@H](C)NC(=O)[C@H](CC(=O)O)NC(=O)[C@H](CC(=O)O)NC1=O)NC(=O)[C@H](CO)NC(=O)[C@H](CC(=O)O)NC2=O (stereo partly drawn) [I-1414, Ac-PL3-Asp-Ser-B5-Asp-Asp-Ala-Ala-Phe-Leu-PyrS2-3Thi-BztA-Leu-NH2] |  |  |  | pIC50 ([1]; NanoBRET Abs IC50, absolute IC50): < 4.70; pIC50 ([2]; beta-Catenin FP IC50, fluorescence polarization): 7.08
3 | CC(=O)N1CCC[C@]12CC=CCCCC1(CCCC=CCCCOC(=O)N3CC[C@@](C(=O)N[C@@H](Cc4ccsc4)C(=O)N[C@@H](Cc4csc5ccccc45)C(=O)N[C@@H](CCC(N)=O)C(N)=O)(C3)NC(=O)[C@H](Cc3c[nH]cn3)NC(=O)[C@H](Cc3ccccc3)NC(=O)[C@H](C)NC(=O)C(C)(C)NC(=O)[C@H]([C@@H](C)O)NC(=O)[C@H](CC(N)=O)NC1=O)NC(=O)[C@H](CC(C)(C)C)NC(=O)[C@H](CC(=O)O)NC2=O (stereo partly drawn) [I-2410, Ac-PL3-Asp-Npg-B5-Asn-Thr-Aib-Ala-Phe-His-PyrS2-3Thi-BztA-Gln-NH2] |  | 6.52 | < 4.70 | 
4 | CC(=O)N1CCC[C@]12CC=CCCCC1(CCCC=CCCCOC(=O)N3CC[C@@](C(=O)N[C@@H](Cc4ccsc4)C(=O)N[C@@H](Cc4csc5ccccc45)C(=O)N[C@@H](CCC(N)=O)C(N)=O)(C3)NC(=O)[C@H](CC(N)=O)NC(=O)[C@H](Cc3ccccc3)NC(=O)[C@H](C)NC(=O)[C@H](C)NC(=O)[C@H](CNCC(=O)O)NC(=O)[C@H](CC(=O)O)NC1=O)NC(=O)[C@H](CC(C)(C)C)NC(=O)[C@H](CC(=O)O)NC2=O (stereo partly drawn) [I-1732, Ac-PL3-Asp-Npg-B5-Asp-GA-Ala-Ala-Phe-Asn-PyrS2-3Thi-BztA-Gln-NH2] |  | 7.96 | < 4.70 | 
5 | CC(=O)N1CCC[C@]12CC=CCCCC1(CCCC=CCCCOC(=O)N3CC[C@@](C(=O)N[C@@H](Cc4ccsc4)C(=O)N[C@@H](Cc4csc5ccccc45)C(=O)N[C@@H](CCC(N)=O)C(N)=O)(C3)NC(=O)[C@H](CC(C)C)NC(=O)[C@@H](Cc3cccc(S(=O)(=O)F)c3)NC(=O)[C@H](C)NC(=O)[C@H](C)NC(=O)[C@H](CN(CC(=O)O)CC(F)(F)F)NC(=O)[C@H](CC(=O)O)NC1=O)NC(=O)[C@H](CC(C)(C)C)NC(=O)[C@H](CC(=O)O)NC2=O (stereo partly drawn) [I-2185, Ac-PL3-Asp-Npg-B5-Asp-TfeGA-Ala-Ala-3SO2F-Leu-PyrS2-3Thi-BztA-Gln-NH2] | 5.21 |  |  | pIC50 ([2]; read-out: beta-Catenin FP IC50, fluorescence polarization): 7.38
6 | CC(=O)N1CCC[C@]12CC=CCCCC1(CCCC=CCCCOC(=O)N3CC[C@@](C(=O)N[C@@H](Cc4ccccc4)C(=O)N[C@@H](Cc4csc5ccccc45)C(=O)N[C@@H](CCCCN)C(N)=O)(C3)NC(=O)[C@H](CC(C)C)NC(=O)[C@H](Cc3ccccc3)NC(=O)[C@H](C)NC(=O)[C@H](CCC(N)=O)NC(=O)[C@H](CCC(N)=O)NC(=O)[C@H](CC(=O)O)NC1=O)NC(=O)[C@H](CC1CCCCC1)NC(=O)[C@H](CC(N)=O)NC2=O (stereo partly drawn) [I-2421, Ac-PL3-Asn-Cha-B5-Asp-Gln-Gln-Ala-Phe-Leu-PyrS2-Phe-BztA-Lys-NH2] |  | 6.84 | < 4.70 | 
7 | CC(=O)N1CCC[C@]12CCCCCCC1(CCCCCCCCOC(=O)N3CC[C@@](C(=O)N[C@@H](Cc4ccsc4)C(=O)N[C@@H](Cc4csc5ccccc45)C(=O)N[C@@H](CCC(N)=O)C(N)=O)(C3)NC(=O)[C@H](CC(C)C)NC(=O)[C@H](Cc3ccccc3)NC(=O)[C@H](C)NC(=O)[C@H](C)NC(=O)[C@H](CC(=O)O)NC(=O)[C@H](CC(=O)O)NC1=O)NC(=O)[C@H](CC(C)(C)C)NC(=O)[C@H](CC(=O)O)NC2=O (stereo partly drawn) [I-1808, Ac-PL3-Asp-Npg-B5-Asp-Asp-Ala-Ala-Phe-Leu-PyrS2-3Thi-BztA-Gln-NH2] |  | 7.05 | 4.85 | 
8 | CC(=O)N1CCC[C@]12CCCCCCC1(CCCCCCOC(=O)N3CC[C@@](C(=O)N[C@@H](Cc4ccsc4)C(=O)N[C@@H](Cc4csc5ccccc45)C(=O)N[C@@H](CCC(N)=O)C(N)=O)(C3)NC(=O)[C@H](CC(C)C)NC(=O)[C@H](Cc3ccccc3)NC(=O)[C@H](C)NC(=O)[C@H](C)NC(=O)[C@H](CC(=O)O)NC(=O)[C@H](CC(=O)O)NC1=O)NC(=O)[C@H](CC(C)(C)C)NC(=O)[C@H](CC(=O)O)NC2=O (stereo partly drawn) [I-1824, Ac-PL3-Asp-Npg-B5-Asp-Asp-Ala-Ala-Phe-Leu-PyrS-3Thi-BztA-Gln-NH2] |  | 7.00 | < 4.70 | 

Continued, in another order:

Row | pIC50 ([1]; read-out: NanoBRET Abs IC50) | pIC50 [2, 3] | pIC50 [1, 4] | Structure (SMILES) | further results
9 | < 4.70 | 7.13 |  | CC(=O)N1CCC[C@]12CC=CCCCC1(CCCC=CCCCOC(=O)N3CC[C@@](C(=O)N[C@@H](Cc4cccc(C(N)=O)c4)C(=O)N[C@@H](Cc4csc5ccccc45)C(=O)N[C@@H](CCO)C(N)=O)(C3)NC(=O)[C@H](CC(N)=O)NC(=O)[C@H](Cc3ccccc3)NC(=O)[C@H](C)NC(=O)[C@H](CCCCNC(C)C)NC(=O)[C@H](CCC(N)=O)NC(=O)[C@H](CC(=O)O)NC1=O)NC(=O)[C@H](CC1CCCCC1)NC(=O)[C@H](CC(N)=O)NC2=O (stereo partly drawn) [I-1929, Ac-PL3-Asn-Cha-B5-Asp-Gln-iPrLys-Ala-Phe-Asn-PyrS2-3cbmf-BztA-Hse-NH2] | 
10 | < 4.70 | 6.47 |  | CC(=O)N1CCC[C@]12CC=CCCCC1(CCCC=CCCCOC(=O)N3CC[C@@](C(=O)N[C@@H](Cc4ccccc4)C(=O)N[C@@H](Cc4csc5ccccc45)C(=O)N[C@@H](Cc4ccccc4)C(N)=O)(C3)NC(=O)[C@H](CC(N)=O)NC(=O)[C@H](Cc3ccccc3)NC(=O)[C@H](C)NC(=O)[C@H](CCCCNC(C)C)NC(=O)[C@H](CCC(N)=O)NC(=O)[C@H](CC(=O)O)NC1=O)NC(=O)[C@H](CC1CCCCC1)NC(=O)[C@H](CC(N)=O)NC2=O (stereo partly drawn) [I-2068, Ac-PL3-Asn-Cha-B5-Asp-Gln-iPrLys-Ala-Phe-Asn-PyrS2-Phe-BztA-Phe-NH2] | 
11 | < 4.70 | 6.74 |  | CC(=O)N1CCC[C@]12CC=CCCCC1(CCCC=CCCCOC(=O)N3CC[C@@](C(=O)N[C@@H](Cc4ccccc4)C(=O)N[C@@H](Cc4csc5ccccc45)C(=O)N[C@@H](CC(N)=O)C(N)=O)(C3)NC(=O)[C@H](CC(N)=O)NC(=O)[C@H](Cc3ccccc3)NC(=O)[C@H](C)NC(=O)[C@H](CCCCNC(C)C)NC(=O)[C@H](CCC(N)=O)NC(=O)[C@H](CC(=O)O)NC1=O)NC(=O)[C@H](CC1CCCCC1)NC(=O)[C@H](CC(N)=O)NC2=O (stereo partly drawn) [I-2111, Ac-PL3-Asn-Cha-B5-Asp-Gln-iPrLys-Ala-Phe-Asn-PyrS2-Phe-BztA-Asn-NH2] | 
